Laboratory results reported in patent US10357438B2, “Metal salt compositions” (Colgate-Palmolive Company, priority 2014, dated 2019).

The substances below were run on five species, planktonic mix of representative oral species (Actinomyces viscosus, Lactobacillus casei, Streptococcus oralis, Fusobacterium nucleatum, and …) (assay: Resazurin bacterial inhibition assay). Details: 1% elemental Zn final concentration; 1 h incubation; resazurin fluorescence.
Format: cell-based
Description: The antibacterial activity of the Zn2CitCl (dizinc citrate chloride) complex was compared against zinc citrate (ZnCit) using the resazurin bacterial inhibition assay. In order to test this hypothesis, we used an assay we have developed based on the metabolic indicator dye resazurin. […] A five species, planktonic mix of representative oral species is used in this assay (Actinomyces viscosus, Lactobacillus casei, Streptococcus oralis, Fusobacterium nucleatum, and Veillonella parvula). Bacteria are incubated with the test solution for 1 h prior to staining with 50 μg/ml of resazurin solution. When viable, metabolically active bacteria are incubated with resazurin, the blue, non-fluorescent dye is reduced by the bacteria to the pink fluorescent dye resrufin. Fluorescence of test samples are read at 560 nm excitation/590 nm emission and compared to the fluorescence of standard mixes of live and dead bacteria to determine the percentage of the initial population that remained viable following treatment. Samples were tested at a final concentration of 1% elemental Zn for each compound indicated.
basic sodium dizinc citrate chloride was tested, and the “% viability” value was 3.3%. For basic sodium zinc citrate, the “% viability” value was 7.0%. In the case of sodium zinc citrate, the “% viability” value is reported as 5.9%.
